Patent publication US9187465B2, “Oxazole tyrosine kinase inhibitors” (Sareum Limited, priority 2007, dated 2015)

Legend:
human FLT4 = target: T1, human FLT4 (Homo sapiens, UniProt P35916); assay: FLT4 kinase assay (DELFIA enzyme inhibition); format: biochemical; conditions: read-out: FLT4 IC50
T1 construct: a construct expressing the human FLT4 (789-1207) with an amino terminal GST tag; host or cells: Sf9 insect cells (baculovirus)
Procedure, shortened: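 GST-tagged human FLT4 (789-1207) from Sf9 cells phosphorylates a biotinylated MET (Tyr1253)-derived peptide for 30 min at room temperature, stopped with EDTA. Phosphopeptide is captured on Neutravidin and detected with Eu-labelled anti-phosphotyrosine antibody by time-resolved fluorescence; IC50 from % inhibition curves.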

human FLT3 = target: T2, human FLT3 (Homo sapiens, UniProt P36888); assay: FLT3 kinase assay (DELFIA enzyme inhibition); format: biochemical
T2 construct: a construct expressing the human FLT3 (564-993) with an amino terminal GST tag; host or cells: Sf9 insect cells (baculovirus)
T2 sequence (P36888 564-993): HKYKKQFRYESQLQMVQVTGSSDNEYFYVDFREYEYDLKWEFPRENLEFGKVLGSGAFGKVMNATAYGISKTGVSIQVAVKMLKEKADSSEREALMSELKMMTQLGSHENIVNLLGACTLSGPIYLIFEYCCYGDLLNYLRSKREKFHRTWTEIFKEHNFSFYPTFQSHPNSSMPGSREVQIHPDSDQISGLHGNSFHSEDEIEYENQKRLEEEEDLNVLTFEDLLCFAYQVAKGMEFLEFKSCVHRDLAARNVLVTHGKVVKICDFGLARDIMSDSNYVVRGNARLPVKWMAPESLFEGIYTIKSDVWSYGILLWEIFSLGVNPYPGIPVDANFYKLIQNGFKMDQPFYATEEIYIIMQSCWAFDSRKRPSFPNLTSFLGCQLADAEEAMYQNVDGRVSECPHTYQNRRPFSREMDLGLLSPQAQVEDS
Procedure, shortened: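 GST-tagged human FLT3 (564-993), expressed in sf9 cells, phosphorylated a biotinylated Gastrin Precursor (Tyr 87)-derived peptide for 30 min at room temperature before EDTA stop. The captured peptide was detected by Eu-labelled anti-phosphotyrosine DELFIA time-resolved fluorescence. IC50 was derived from % inhibition curves.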

human Aurora A = target: T3, human Aurora A (Homo sapiens, UniProt O14965); assay: Aurora A kinase assay (DELFIA enzyme inhibition); format: biochemical; conditions: read-out: Aurora A IC50
T3 construct: Histidine tag (N); host or cells: Sf9 insect cells (baculovirus)
T3 sequence (O14965 1-403): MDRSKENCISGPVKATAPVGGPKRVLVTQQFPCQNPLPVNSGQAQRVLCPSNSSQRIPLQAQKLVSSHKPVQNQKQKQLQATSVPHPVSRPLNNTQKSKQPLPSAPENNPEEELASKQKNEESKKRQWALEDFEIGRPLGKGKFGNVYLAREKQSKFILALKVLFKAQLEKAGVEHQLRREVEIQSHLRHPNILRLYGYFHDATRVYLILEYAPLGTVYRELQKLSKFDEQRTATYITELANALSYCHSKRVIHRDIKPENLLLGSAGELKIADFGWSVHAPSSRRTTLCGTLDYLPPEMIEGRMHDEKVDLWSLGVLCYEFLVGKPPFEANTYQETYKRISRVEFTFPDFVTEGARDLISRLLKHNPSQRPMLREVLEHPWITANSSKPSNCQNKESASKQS
Procedure, shortened: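 DELFIA read-out (time-resolved Eu fluorescence, 620 nm emission) after Neutravidin capture of biotinylated peptide substrate and antibody detection. Reaction: Ni-agarose-purified Aurora A, 30 min at room temperature, stopped with 100 mM EDTA.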

HCT116 cells = assay: Anti-proliferative activity, Alamar Blue assay, HCT116; format: cell-based; conditions: Homo sapiens, HCT-116, 72 hours, read-out: cell proliferation IC50
Method: (§1) The anti-proliferative activities of compounds of the invention are determined by measuring the ability of the compounds to inhibition of cell growth in a number of cell lines. Inhibition of cell growth is measured using the Alamar Blue assay (Nociari et al., Journal of Immunological Methods (1998) 213, 157-167). The method is based on the ability of viable cells to reduce resazurin to its fluorescent product resorufin. For each proliferation assay cells are plated onto 96 well plates and allowed to recover for 16 hours prior to the addition of inhibitor compounds for a further 72 hours. At the end of the incubation period 10% (v/v) Alamar Blue is added and incubated for a further 6 hours prior to determination of fluorescent product at Excitation 535 nm and Emission 590 nm. In the case of the non-proliferating cell assay cells are maintained at confluence for 96 hour prior to the addition of inhibitor compounds for a further 72 hours. The number of viable cells is determined by Alamar Blue assay as before. All cell lines are obtained from ECACC (European Collection of cell Cultures).

[1] = tested on: A549 human lung carcinoma cells; assay: Anti-proliferative activity, Alamar Blue assay, A549; format: cell-based; conditions: A549, 72 h, read-out: cell growth IC50
Method: as §1

T1 sequence (P35916 789-1207): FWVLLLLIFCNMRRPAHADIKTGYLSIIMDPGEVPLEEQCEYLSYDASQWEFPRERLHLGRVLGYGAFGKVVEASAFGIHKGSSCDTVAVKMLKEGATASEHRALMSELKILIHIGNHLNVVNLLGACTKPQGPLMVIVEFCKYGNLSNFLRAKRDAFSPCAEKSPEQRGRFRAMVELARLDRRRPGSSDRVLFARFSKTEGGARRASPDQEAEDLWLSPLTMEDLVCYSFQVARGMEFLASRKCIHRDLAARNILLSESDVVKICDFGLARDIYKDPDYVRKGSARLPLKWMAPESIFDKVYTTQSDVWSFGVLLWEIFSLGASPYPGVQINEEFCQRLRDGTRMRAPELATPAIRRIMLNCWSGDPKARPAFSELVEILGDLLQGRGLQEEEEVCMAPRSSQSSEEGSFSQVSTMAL

| IC50 (human FLT4) [µM] | IC50 (human FLT3) [µM] | IC50 (human Aurora A) [µM] | IC50 (HCT116 cells) [µM] | IC50 [1] [µM] | Compound |
| --- | --- | --- | --- | --- | --- |
| < 10 | < 10 | < 10 | < 10 |  | NC(=O)c1nc(-c2c(F)cccc2F)oc1-c1ccc(OCCN2CCOCC2)cc1 [Example F-13, 2-(2,6-difluorophenyl)-5-(4-(2-morpholinoethoxy)phenyl)oxazole-4-carboxamide] |
| < 10 | < 10 | < 10 | < 10 | < 10 | NC(=O)c1nc(-c2c(F)cccc2F)oc1-c1ccc(N2CCNCC2)cc1 [Example G-3, 2-(2,6-difluorophenyl)-5-(4-(piperazin-1-yl)phenyl)oxazole-4-carboxamide] |
| < 10 | < 10 | < 10 | < 10 | < 10 | NC(=O)c1nc(-c2c(F)cccc2Cl)oc1-c1ccc(N2CCNCC2)cc1 [Example G-5, 2-(2-chloro-6-fluorophenyl)-5-(4-(piperazin-1-yl)phenyl)oxazole-4-carboxamide] |
| < 10 | < 10 | < 10 | < 10 |  | CNC(=O)N1CCN(c2ccc(Nc3oc(-c4c(F)cccc4F)nc3C(N)=O)cc2)CC1 [Example J-3, 4-(4-(4-carbamoyl-2-(2,6-difluorophenyl)oxazol-5-ylamino)phenyl)-N-methylpiperazine-1-carboxamide] |
| < 10 | < 10 | < 10 | < 10 | < 10 | NC(=O)c1nc(-c2cccc3[nH]ccc23)oc1-c1ccc(N2CCNCC2)cc1 [Example M-12, 2-(1H-indol-4-yl)-5-(4-(piperazin-1-yl)phenyl)oxazole-4-carboxamide] |
| < 10 | < 10 | < 10 | < 10 | < 10 | NC(=O)c1nc(-c2cccc3[nH]ncc23)oc1-c1ccc(N2CCNCC2)cc1 [Example M-17, 2-(1H-indazol-4-yl)-5-(4-(piperazin-1-yl)phenyl)oxazole-4-carboxamide] |
| < 10 | < 10 | < 10 | < 10 | < 10 | CS(=O)(=O)c1ccc(Nc2oc(-c3c(F)cccc3F)nc2C(N)=O)cc1 [Example Q-3, 2-(2,6-difluorophenyl)-5-(4-(methylsulfonyl)phenylamino)oxazole-4-carboxamide] |
| < 10 | < 10 | < 10 | < 10 |  | CN1CCN(c2ccc(Nc3oc(-c4c(F)cccc4F)nc3C(N)=O)cc2)CC1 [Example Q-7, 2-(2,6-difluorophenyl)-5-(4-(4-methylpiperazin-1-yl)phenylamino)oxazole-4-carboxamide] |
| < 10 | < 10 | < 10 | < 10 |  | NC(=O)c1nc(-c2c(F)cccc2F)oc1Nc1ccc(OCCN2CCOCC2)cc1 [Example Q-8, 2-(2,6-difluorophenyl)-5-(4-(2-morpholinoethoxy)phenylamino)oxazole-4-carboxamide] |
| < 10 | < 10 | < 10 | < 10 |  | CC(=O)N1CCN(c2ccc(Nc3oc(-c4c(F)cccc4F)nc3C(N)=O)cc2)CC1 [Example Q-9, 5-(4-(4-acetylpiperazin-1-yl)phenylamino)-2-(2,6-difluorophenyl)oxazole-4-carboxamide] |
| < 10 | < 10 | < 10 |  | < 10 | CN(C)S(=O)(=O)c1ccc(Nc2oc(-c3c(F)cccc3F)nc2C(N)=O)cc1 [Example Q-26, 2-(2,6-difluorophenyl)-5-(4-(N′,N′-dimethylsulfonamide)phenylamino)oxazole-4-carboxamide] |
| < 10 | < 100 | < 100 |  | < 10 | NC(=O)c1nc(-c2c(F)cccc2F)oc1Nc1ccc(S(=O)(=O)N2CCCCC2)cc1 [Example Q-28, 2-(2,6-difluorophenyl)-5-(4-(piperidin-1-ylsulfonyl)phenylamino)oxazole-4-carboxamide] |
| < 10 | < 10 | < 10 | < 10 |  | COc1ccccc1Nc1nc(C(N)=O)c(-c2ccc(N3CCNCC3)cc2)o1 [Example R-11, 2-(2-methoxyphenylamino)-5-(4-(piperazin-1-yl)phenyl)oxazole-4-carboxamide] |
| < 10 | < 10 | < 10 |  |  | NCC1CN(C(=O)c2ccc(Nc3oc(-c4c(F)cccc4F)nc3C(N)=O)cc2)CCO1 (stereo not drawn) [Example U-23, 5-(4-(2-(aminomethyl)morpholine-4-carbonyl)phenylamino)-2-(2,6-difluorophenyl) oxazole-4-carboxamide] |
| < 10 | < 10 | < 10 |  |  | CN1CCN(C(=O)c2ccc(Nc3oc(-c4c(F)cccc4F)nc3C(N)=O)cc2)CC1CCO (stereo not drawn) [Example U-24, 2-(2,6-difluorophenyl)-5-(4-(2-(2-hydroxyethyl)-1-methylpiperazine-4-carbonyl)phenylamino)oxazole-4-carboxamide] |
| < 10 | < 10 | < 10 |  |  | CN1CCN(C(=O)c2ccc(Nc3oc(-c4c(F)cccc4F)nc3C(N)=O)cc2)CC1CO (stereo not drawn) [Example U-25, 2-(2,6-difluorophenyl)-5-(4-(2-(hydroxymethyl)-1-methylpiperazine-4-carbonyl)phenylamino)oxazole-4-carboxamide] |
| < 10 | < 10 | < 10 |  |  | CN1CCN(C(=O)c2ccc(Nc3oc(-c4c(F)cccc4F)nc3C(N)=O)cc2)[C@@H](CO)C1 [Example U-26, (R)-2-(2,6-difluorophenyl)-5-(4-(3-(hydroxymethyl)-1-methylpiperazine-4-carbonyl)phenylamino)oxazole-4-carboxamide] |
| < 10 | < 10 | < 10 |  |  | CN1CCN(C(=O)c2ccc(Nc3oc(-c4c(F)cccc4F)nc3C(N)=O)cc2)[C@H](CO)C1 [Example U-27, (S)-2-(2,6-difluorophenyl)-5-(4-(3-(hydroxymethyl)-1-methylpiperazine-4-carbonyl)phenylamino)oxazole-4-carboxamide] |
| < 10 | < 10 | < 10 |  |  | CN1CCN(C(=O)Nc2ccc(Nc3oc(-c4c(F)cccc4F)nc3C(N)=O)cc2)CC1 [Example V-2, N-(4-(4-carbamoyl-2-(2,6-difluorophenyl)oxazol-5-ylamino)phenyl)-4-methyl piperazine-1-carboxamide] |
| < 10 | < 10 | < 10 |  |  | CNCCC(=O)Nc1ccc(Nc2oc(-c3c(F)cccc3F)nc2C(N)=O)cc1 [Example V-3, 2-(2,6-difluorophenyl)-5-(4-(3-(methylamino)propanamido)phenylamino)oxazole-4-carboxamide] |
| < 10 | < 10 | < 10 |  |  | NC(=O)c1nc(-c2c(F)cccc2F)oc1Nc1ccc(NC(=O)C2CCCNC2)cc1 (stereo not drawn) [Example V-4, N-(4-(4-carbamoyl-2-(2,6-difluorophenyl)oxazol-5-ylamino)phenyl)piperidine-3-carboxamide] |
